From ChEMBL document CHEMBL5236577, “Targeting Aggrecanases for Osteoarthritis Therapy: From Zinc Chelation to Exosite Inhibition” (J Med Chem, 2022)

Key:
[1] = biological target: T1, A disintegrin and metalloproteinase with thrombospondin motifs 4 (Homo sapiens, UniProt O75173); assay: Inhibition of recombinant human ADAMTS-4
T1 sequence (O75173 whole entry): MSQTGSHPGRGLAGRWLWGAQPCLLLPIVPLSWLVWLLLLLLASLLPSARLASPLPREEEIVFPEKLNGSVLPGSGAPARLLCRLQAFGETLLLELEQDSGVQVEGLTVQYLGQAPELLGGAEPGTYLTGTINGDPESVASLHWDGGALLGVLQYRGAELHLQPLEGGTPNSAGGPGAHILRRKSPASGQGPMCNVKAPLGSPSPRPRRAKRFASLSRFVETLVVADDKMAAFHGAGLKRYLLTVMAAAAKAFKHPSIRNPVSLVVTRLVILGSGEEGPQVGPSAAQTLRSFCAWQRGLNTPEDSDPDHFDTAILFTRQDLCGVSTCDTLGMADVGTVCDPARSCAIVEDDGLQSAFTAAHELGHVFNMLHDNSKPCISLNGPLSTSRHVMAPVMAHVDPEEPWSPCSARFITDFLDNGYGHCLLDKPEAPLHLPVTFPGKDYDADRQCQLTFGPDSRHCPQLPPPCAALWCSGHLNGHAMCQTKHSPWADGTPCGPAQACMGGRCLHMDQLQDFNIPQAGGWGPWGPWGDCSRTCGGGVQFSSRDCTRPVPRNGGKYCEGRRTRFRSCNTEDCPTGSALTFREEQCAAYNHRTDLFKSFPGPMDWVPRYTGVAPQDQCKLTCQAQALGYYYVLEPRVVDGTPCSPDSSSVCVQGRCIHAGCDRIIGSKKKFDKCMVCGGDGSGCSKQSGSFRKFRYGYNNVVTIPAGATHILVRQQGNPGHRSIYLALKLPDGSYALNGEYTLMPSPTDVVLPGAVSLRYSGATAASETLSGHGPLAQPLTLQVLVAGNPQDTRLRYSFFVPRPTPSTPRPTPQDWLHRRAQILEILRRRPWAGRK

[2] = biological target: T2, A disintegrin and metalloproteinase with thrombospondin motifs 5 (Homo sapiens, UniProt Q9UNA0); assay: Inhibition of recombinant human ADAMTS-5
T2 sequence (Q9UNA0 whole entry): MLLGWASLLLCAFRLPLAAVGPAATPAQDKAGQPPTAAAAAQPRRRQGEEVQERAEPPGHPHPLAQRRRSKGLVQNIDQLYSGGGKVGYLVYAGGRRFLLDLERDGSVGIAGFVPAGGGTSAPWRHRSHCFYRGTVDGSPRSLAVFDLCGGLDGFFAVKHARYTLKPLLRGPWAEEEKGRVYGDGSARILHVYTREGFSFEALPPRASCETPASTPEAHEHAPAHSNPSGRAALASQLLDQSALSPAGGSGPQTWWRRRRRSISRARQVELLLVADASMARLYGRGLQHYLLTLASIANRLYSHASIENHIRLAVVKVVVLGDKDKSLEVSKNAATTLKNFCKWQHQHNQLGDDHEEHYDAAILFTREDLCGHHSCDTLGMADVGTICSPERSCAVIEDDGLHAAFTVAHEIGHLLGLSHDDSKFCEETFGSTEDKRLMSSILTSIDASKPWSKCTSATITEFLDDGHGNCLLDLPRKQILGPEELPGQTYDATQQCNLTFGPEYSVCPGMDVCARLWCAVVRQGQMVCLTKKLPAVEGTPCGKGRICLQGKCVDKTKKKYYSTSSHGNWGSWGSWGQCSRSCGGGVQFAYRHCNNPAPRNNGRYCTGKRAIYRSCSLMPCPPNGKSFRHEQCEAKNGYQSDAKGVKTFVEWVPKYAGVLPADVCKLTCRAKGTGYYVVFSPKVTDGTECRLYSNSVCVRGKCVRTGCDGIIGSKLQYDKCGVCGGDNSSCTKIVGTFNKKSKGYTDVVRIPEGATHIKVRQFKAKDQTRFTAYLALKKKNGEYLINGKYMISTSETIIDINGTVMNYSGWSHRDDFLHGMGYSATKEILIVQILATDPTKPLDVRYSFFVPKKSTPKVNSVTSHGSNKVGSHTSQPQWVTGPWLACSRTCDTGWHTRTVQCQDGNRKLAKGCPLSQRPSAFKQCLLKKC

[3] = biological target: 72 kDa type IV collagenase (Homo sapiens, UniProt P08253); assay: Inhibition of recombinant human MMP2
Sequence of 72 kDa type IV collagenase (P08253 whole entry): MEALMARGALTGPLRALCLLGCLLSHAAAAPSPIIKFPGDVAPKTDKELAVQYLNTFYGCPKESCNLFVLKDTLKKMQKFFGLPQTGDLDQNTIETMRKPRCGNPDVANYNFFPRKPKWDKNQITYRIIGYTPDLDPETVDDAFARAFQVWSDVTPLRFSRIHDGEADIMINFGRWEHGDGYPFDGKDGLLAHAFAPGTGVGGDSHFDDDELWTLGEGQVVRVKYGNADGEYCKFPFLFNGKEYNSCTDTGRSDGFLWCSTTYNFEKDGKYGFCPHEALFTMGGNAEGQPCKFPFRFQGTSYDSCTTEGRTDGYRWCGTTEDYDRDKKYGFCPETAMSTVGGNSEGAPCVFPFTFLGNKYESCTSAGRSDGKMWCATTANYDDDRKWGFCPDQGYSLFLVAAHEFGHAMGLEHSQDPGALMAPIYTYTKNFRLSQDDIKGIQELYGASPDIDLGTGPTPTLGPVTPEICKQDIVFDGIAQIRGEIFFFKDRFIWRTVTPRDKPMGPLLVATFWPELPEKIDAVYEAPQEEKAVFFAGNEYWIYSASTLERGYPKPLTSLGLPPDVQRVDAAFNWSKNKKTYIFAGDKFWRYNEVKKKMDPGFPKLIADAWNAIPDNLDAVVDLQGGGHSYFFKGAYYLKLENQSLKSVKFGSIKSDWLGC

Matrilysin = biological target: T3, Matrilysin (Homo sapiens, UniProt P09237); assay: Inhibition of recombinant human MMP7
T3 sequence (P09237 whole entry): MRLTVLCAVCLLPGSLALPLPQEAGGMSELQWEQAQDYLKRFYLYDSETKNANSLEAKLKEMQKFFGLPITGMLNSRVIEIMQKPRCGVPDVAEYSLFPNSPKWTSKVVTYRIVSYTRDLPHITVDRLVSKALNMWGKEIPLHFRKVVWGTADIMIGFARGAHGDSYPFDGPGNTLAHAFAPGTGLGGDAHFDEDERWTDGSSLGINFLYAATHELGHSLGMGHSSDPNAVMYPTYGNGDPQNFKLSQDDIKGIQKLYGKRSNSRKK

Collagenase 3 = Collagenase 3 (Homo sapiens, UniProt P45452); assay: Inhibition of recombinant human MMP13

## O=c1cc(-c2ccc(O)c(O)c2)oc2cc(O)cc(O)c12 [LUTEOLIN]
[1]
  IC50: 9.8 µM
[2]
  IC50: 12.2 µM
[3]
  IC50: 40.9 µM
Matrilysin
  IC50: 68.2 µM
Collagenase 3
  IC50: 18.3 µM
